Assay results published in PMC9758846, “Dinuclear and mononuclear metal(II) polypyridyl complexes against drug-sensitive and drug-resistant Plasmodium falciparum and their mode of action” (Malaria Journal, 2022).
“And” between values parts separate entries of the source, which are not always exact repeats. Equal entries are not always repeated.

Experiments:
[1] = tested on: Plasmodium falciparum 3D7 (Pf3D7); test: In vitro anti-malarial activity using SYBR Green I nucleic acid dye; format: cell-based; details: 72 h incubation; read-out: IC50 of Pf3D7
Method: (§1) The drug-sensitive strain of P. falciparum 3D7 (Pf3D7) was obtained from the Department of Science, Monash University, Malaysia and cultured as previously described. The artemisinin-resistant strain of P. falciparum IPC5202 (Pf5202) was obtained from BEI Resources and cultured as mentioned in the product sheet. Both strains were maintained in sealed flask at 37 °C in a humidified atmosphere of 5% O2, 5% CO2 and 90% N2. All buffer stock solutions for biological assays were autoclaved at 121 °C for 15 min.
(§2) Previously reported anti-malarial assay was used with slight modification using 1% parasitaemia (ring-stage) and 5% haematocrit treated with test compounds at increasing concentration and incubated for 72 h at 37 °C [21–23]. After the incubation, the assay was terminated by freeze/thaw cycle (− 80 °C overnight before thawing for 2 h) before the addition of lysis buffer containing SYBR Green I dye into each well and mixed thoroughly using the belly dancer for 30 min in the dark. Chloroquine diphosphate salt and artemisinin were used as standard drugs. The fluorescence signal was quantified at 485 nm excitation wavelength and 528 nm emission wavelength. IC50 values of each test compound was determined from a dose response curve by non-linear regression analysis.

[2] = tested on: Plasmodium falciparum IPC5202 (Pf5202); test: as above; format: cell-based; details: 72 h incubation; read-out: IC50 of Pf5202
Method: as §1, §2

Pf3D7 = test: Nuclear morphology study by Hoechst staining; format: cell-based, Plasmodium falciparum; details: Pf3D7-infected RBC; 72 h; 0.2-25 µM
Method: Detections of haemolytic and apoptotic morphological features were examined on Giemsa-stained thin blood smear. The parasite was then visualised with oil immersion (100 × magnification) using upright brightfield microscope. Another thin blood smear was prepared, fixed with methanol, stained in 10 µg/mL of Hoechst 33,258 stain, and kept in the dark for 30 min at room temperature. A cover slip was applied, and the nuclear morphological examination was then visualized with at 100 × magnification with oil by fluorescence microscope using DAPI filter.
The morphological features of apoptosis of P. falciparum can be indicated by chromosome condensation and fragmentation of the P. falciparum nuclei in the non-nuclear RBC cells. The condensed chromosomes would be stained bright blue. The pRBC cells were treated with (1) and (3) respectively for 72 h, and the resultant pRBC were visualized and photographed at 100 × magnification with oil immersion. Typical images were enlarged to look at single cells and are depicted in Fig. 9 for Pf3D7 and Fig. 10 for Pf5202. […] The nuclei of P. falciparum trophozoites in pRBC were observed under brightfield microscope as dots, and they were stained brighter blue which increased in fluorescence intensity with increasing concentration of copper(II) complexes of (1) and (3) from 0.2, 1, 5 to 25 µM compared to the untreated pRBC.

[3] = Solution stability by molar conductivity and visible absorptivity; format: physicochemical; details: 24, 48 and 72 h; room temperature
Method: Series of 10 mM stock solutions were prepared by dissolving the compounds in their respective solvents: phen and 4,4′-bipy in 95% ethanol; Cu(NO3)2·3H2O, Zn(NO3)2·6H2O, (1) and (2) in double distilled water; (3) and (4) in DMSO. All the stock solutions were further diluted with double distilled water to obtain 10 mL of 30 µM, 1 mM and 5 mM for their respective studies, viz. 30 µM for ultraviolet spectral studies, 1 mM for conductivity measurement and 5 mM for visible spectral studies. For the water-DMSO solutions of both complexes (3) and (4), the 30 µM, 1 mM and 5 mM solutions have […], 10% DMSO and 50% DMSO respectively. The absorbance at λmax and conductance were of the aqueous solutions were measured at 0, 24, 48 and 72 h. The molar absorptivity and molar conductivity of the metal(II) complex solutions and their precursors were then calculated.

Row | Molecule | IC50 [1] [nM] | IC50 [2] | Type of cell death by nuclear morphology (Hoechst) (Pf3D7) | Stability of aqueous solution (molar conductivity; for (1) also visible molar absorptivity) [3]
1 | O.O=[N+]([O-])[O-].O=[N+]([O-])[O-].[Cu+2].c1cnc2c(c1)ccc1cccnc12.c1cnc2c(c1)ccc1cccnc12 [Complex 1, [Cu(phen)2](NO3)2·H2O] | 3510 ± 470 | 17900 ± 2730 nM | underwent apoptosis | remains practically unchanged
2 | [Cu(phen)(NO3)(H2O)-4,4′-bipy-Cu(phen)(NO3)(H2O)](NO3)2 [Complex 3] | 900 ± 120 | 2200 nM and 2210 nM | underwent apoptosis | –
